The text below walks through data of patent EP4671247A1, “SUBSTITUTED PYRAZOLOPYRIMIDINE COMPOUND AND PHARMACEUTICAL USE THEREOF” (Japan Tobacco Inc., priority 2023, dated 2024).

The IC50 is the point on the concentration scale where inhibition reaches its midpoint. The inhibition is the share of the control response that was lost under treatment.

In the first test the target is T1, NLRP3 inflammasome (Homo sapiens, UniProt Q96P20).
T1 construct: host or cells: THP1-Null cells (PMA-differentiated, LPS-primed, nigericin-stimulated)
T1 sequence (Q96P20 whole entry): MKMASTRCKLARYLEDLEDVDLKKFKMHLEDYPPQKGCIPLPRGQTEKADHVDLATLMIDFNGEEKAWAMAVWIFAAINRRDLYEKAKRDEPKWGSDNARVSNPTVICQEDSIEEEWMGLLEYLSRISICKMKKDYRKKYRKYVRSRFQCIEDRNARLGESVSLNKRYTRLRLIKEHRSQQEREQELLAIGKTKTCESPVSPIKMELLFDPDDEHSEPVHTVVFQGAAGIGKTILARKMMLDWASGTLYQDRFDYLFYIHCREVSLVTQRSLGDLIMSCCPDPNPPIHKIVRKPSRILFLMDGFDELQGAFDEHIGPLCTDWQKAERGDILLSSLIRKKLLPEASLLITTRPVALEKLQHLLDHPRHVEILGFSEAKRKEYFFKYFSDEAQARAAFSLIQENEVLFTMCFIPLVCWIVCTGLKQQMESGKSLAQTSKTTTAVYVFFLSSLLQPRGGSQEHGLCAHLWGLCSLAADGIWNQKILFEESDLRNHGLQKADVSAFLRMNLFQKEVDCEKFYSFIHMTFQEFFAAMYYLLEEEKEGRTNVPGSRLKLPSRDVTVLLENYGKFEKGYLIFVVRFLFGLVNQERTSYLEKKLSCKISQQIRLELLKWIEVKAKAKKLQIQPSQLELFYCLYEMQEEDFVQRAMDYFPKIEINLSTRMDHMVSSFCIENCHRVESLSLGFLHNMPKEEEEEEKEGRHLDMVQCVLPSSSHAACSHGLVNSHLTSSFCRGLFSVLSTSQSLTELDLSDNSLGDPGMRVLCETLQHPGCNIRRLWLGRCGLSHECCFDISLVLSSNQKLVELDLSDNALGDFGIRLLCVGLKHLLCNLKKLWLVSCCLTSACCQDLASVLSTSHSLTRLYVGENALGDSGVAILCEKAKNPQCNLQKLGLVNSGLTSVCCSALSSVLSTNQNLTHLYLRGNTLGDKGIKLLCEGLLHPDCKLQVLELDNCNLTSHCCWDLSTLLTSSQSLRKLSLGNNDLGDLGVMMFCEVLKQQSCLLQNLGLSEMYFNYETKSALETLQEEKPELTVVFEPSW
Put plainly: Evaluation of NLRP3 inflammasome inhibitory activity (inhibition of IL-1β production in LPS/Nigericin-stimulated THP1-Null cells, AlphaLISA). The settings on record: IC50, IL-1β production in THP1-Null cells; PMA, 1 µg/mL Lipopolysaccharides 3 hours, Nigericin 7.5 µmol/L 1.5 hours. In kind it is cell-based. As to the method: The NLRP3 inflammasome inhibitory activity of test compounds were evaluated on the basis of the inhibitory activity of the IL-1β production in THP1-Null cells (Product Number: thp-null, InvivoGen).
The supernatant of the culture was removed, and thereto was added media for assay (25 µL/well) containing 1 µg/mL Lipopolysaccharides (Product Number: L2654, Sigma-Aldrich (registered trademark)). […] The supernatant of the culture was removed. […] A solution containing a test compound (20 µL/well) was added to test compound-setting wells. […] The supernatant of the culture was cryonically stored (set at -20°C) until measurement of IL-1β.
The amount of IL-1β in the culture supernatant was quantitated with AlphaLISA (registered trademark) Human IL-1β Detection Kit (Product Number: AL220C, Perkin Elmer). Fluorescence intensity was measured with a microplate reader EnSpier (Model number: 2300-00J, Perkin Elmer) or EnSight (Model number: HH34000000, Perkin Elmer) according to procedure manuals attached thereto. Inhibition rates of the test compound-setting wells were calculated on the basis of 100% for the blank-setting wells and 0% for the control-setting wells.
(In general: In Alpha technology, singlet oxygen from a donor bead excites a nearby acceptor bead.)
Compound `Cc1cc(C2CC2)cc(C)c1-n1cc2c(=O)[nH]c([C@@H]3C[C@H]3C#N)nc2n1` (racemic) [Example 152] returned a half-inhibitory concentration (IC50) of 0.012 µM.

Turning to `Cc1cc(Br)cc(C)c1-n1cc2c(=O)[nH]c(C34CC(C3)C4)nc2n1` [Example 60], the IC50 turned out to be 0.06 µM.

For `Cc1cc(Br)cc(C)c1-n1cc2c(=O)[nH]c(C3CC4CCN3CC4)nc2n1` (racemic) [Example 100], the IC50 stood at 0.054 µM.

Still in this test, the particulars now being: IL-1β production in THP1-Null cells; PMA, 1 µg/mL Lipopolysaccharides 3 hours, Nigericin 7.5 µmol/L 1.5 hours.
In turn, `Cc1cc(OC(F)F)cc(C)c1-n1cc2c(=O)[nH]c([C@@H]3C[C@H]3F)nc2n1` (single isomer, unassigned) [Example 172] yielded an IC50 of 0.008 µM.

Turning to `Cc1cc(C2CC2)cc(C)c1-n1cc2c(=O)[nH]c(C(C)O)nc2n1` (racemic) [Example 123], inhibition was half-maximal at 0.023 µM (IC50).

Compound `COC1CC(c2nc3nn(-c4c(C)cc(Br)cc4C)cc3c(=O)[nH]2)C1` (single isomer, unassigned) [Example 122] gave an IC50 of 0.061 µM.

Compound `Cc1cc(C2CC2)cc(C)c1-n1cc2c(=O)[nH]c(C3(F)CCOC3)nc2n1` (single isomer, unassigned) [Example 78] showed an IC50 of 0.033 µM.

`Cc1cc(OC(F)F)cc(C)c1-n1cc2c(=O)[nH]c([C@@H]3C[C@H]3F)nc2n1` (racemic) [Example 171]: the IC50 was found to be 0.024 µM.

In the case of `Cc1cc(OC(F)F)cc(C)c1-n1cc2c(=O)[nH]c(C3CCOCC3F)nc2n1` (single isomer, unassigned) [Example 177], inhibition was half-maximal at 0.024 µM (IC50).

Staying with this test, now noted: IL-1β production in THP1-Null cells; PMA, 1 µg/mL Lipopolysaccharides 3 hours, Nigericin 7.5 µmol/L 1.5 hours; read-out: IC50.
With `Cc1cc(OC(F)F)cc(C)c1-n1cc2c(=O)[nH]c(C3CCOCC3)nc2n1` [Example 64], the 50% inhibitory concentration (IC50) is 0.022 µM.

For the compound `COCC1C(c2nc3nn(-c4c(C)cc(C5CC5)cc4C)cc3c(=O)[nH]2)C1(F)F` (racemic) [Example 120], the IC50 was found to be 0.04 µM.

Consider `Cc1cc(C(C)(F)F)cc(C)c1-n1cc2c(=O)[nH]c([C@@H]3C[C@H]3F)nc2n1` (single isomer, unassigned) [Example 146], for which the IC50 came out at 0.015 µM.

`Cc1cc(C2CC2)cc(C)c1-n1nc2nc(C3CC3)[nH]c(=O)c2c1C#N` [Example 87]: the IC50 was 0.011 µM.

As for `COCc1nc2nn(-c3c(C)cc(Br)cc3C)cc2c(=O)[nH]1` [Example 27], the IC50 is 0.029 µM.

As for `Cc1cc(C2CC2)cc(F)c1-n1cc2c(=O)[nH]c(C3(F)CCOCC3)nc2n1` [Example 110], the IC50 was 0.019 µM.

Consider `Cc1cc(Br)cc(C)c1-n1cc2c(=O)[nH]c(C3CC3C(N)=O)nc2n1` (racemic) [Example 150], for which the IC50 turned out to be 0.018 µM.

Regarding `Cc1cc(Br)cc(C)c1-n1cc2c(=O)[nH]c(COCCO)nc2n1` [Example 96], the IC50 turned out to be 0.27 µM.

On to `CC(=O)c1c2c(=O)[nH]c(C3COC3)nc2nn1-c1c(C)cc(Br)cc1C` [Example 72], for which the IC50 turned out to be 0.057 µM.

As to `Cc1cc(Br)cc(C)c1-n1cc2c(=O)[nH]c(CC(O)C(F)(F)F)nc2n1` (racemic) [Example 126], the IC50 worked out at 0.024 µM.

`Cc1cc(C2CC2)cc(C)c1-n1cc2c(=O)[nH]c(C3CCOCCO3)nc2n1` (single isomer, unassigned) [Example 179, 2-(4-cyclopropyl-2,6-dimethylphenyl)-6-(1,4-dioxepan-5-yl)-2,5-dihydro-4H-pyrazolo[3,4-d]pyrimidin-4-one]: the IC50 is 0.051 µM.

As for `Cc1cc(C2CC2)cc(C)c1-n1nc2nc(C3CC3)[nH]c(=O)c2c1CO` [Example 83, 6-cyclopropyl-2-(4-cyclopropyl-2,6-dimethylphenyl)-3-(hydroxymethyl)-2,5-dihydro-4H-pyrazolo[3,4-d]pyrimidin-4-one], the IC50 amounted to 0.024 µM.

Consider `Cc1cc(Br)cc(C)c1-n1cc2c(=O)[nH]c(C(C)(C)F)nc2n1` [Example 70], for which the IC50 was 0.13 µM.

In the case of `CNC(=O)c1nc2nn(-c3c(C)cc(C4CC4)cc3C)cc2c(=O)[nH]1` [Example 196], the IC50 amounted to 0.022 µM.

On to `Cc1cc(Br)cc(C)c1-n1cc2c(=O)[nH]c(CN3CCCCC3)nc2n1` [Example 112], for which the IC50 is 0.14 µM.

In the case of `COCc1nc2nn(-c3c(C)cc(C4CC4)cc3C)cc2c(=O)[nH]1` [Example 43], the IC50 stood at 0.042 µM.

In the case of `Cc1cc(OC(F)F)cc(C)c1-n1cc2c(=O)[nH]c(C3CCN(C)CC3)nc2n1` [Example 90], the 50% inhibitory concentration (IC50) amounted to 0.068 µM.

Consider `O=c1[nH]c(C2CC2)nc2nn(-c3cc4c(cc3Cl)OCCC4)cc12` [Example 211], for which the IC50 was determined as 0.027 µM.

As for `CCc1nc2nn(-c3c(C)cc(C4CC4)cc3C)cc2c(=O)[nH]1` [Example 23], the IC50 was 0.024 µM.

Turning to `Cc1cc(OC(F)F)cc(C)c1-n1cc2c(=O)[nH]c(COC(F)F)nc2n1` [Example 148], the IC50 came out at 0.061 µM.

Turning to `Cc1cc(Br)cc(C)c1-n1cc2c(=O)[nH]c(C(O)C(F)(F)F)nc2n1` (racemic) [Example 138], the IC50 was 0.12 µM.

`Cc1cc(C2CC2)cc(C)c1-n1cc2c(=O)[nH]c(C3(F)CCOCC3)nc2n1` [Example 73]: the IC50 stood at 0.021 µM.

`Cc1cc(OC(F)F)cc(C)c1-n1cc2c(=O)[nH]c(C3CCOC3)nc2n1` (racemic) [Example 63]: the IC50 is 0.045 µM.

In the case of `Cc1cc(C2CC2)cc(C)c1-n1cc2c(=O)[nH]c(CCF)nc2n1` [Example 101], the IC50 came to 0.024 µM.

As to `Cc1cc(Br)cc(C)c1-n1cc2c(=O)[nH]c(COCC3CCOCC3)nc2n1` [Example 46], the IC50 worked out at 0.14 µM.

Regarding `Cc1c(-n2cc3c(=O)[nH]c(C4CC4)nc3n2)c(C(F)(F)F)nn1C(C)C` [Example 61], the IC50 amounted to 0.46 µM.

For the compound `COC(C)c1nc2nn(-c3c(C)cc(C4CC4)cc3C)cc2c(=O)[nH]1` (racemic) [Example 41], the IC50 turned out to be 0.093 µM.

Turning to `Cc1cc(C2CC2)cc(C)c1-n1cc2c(=O)[nH]c(C3CCOCCO3)nc2n1` (single isomer, unassigned) [Example 178, 2-(4-cyclopropyl-2,6-dimethylphenyl)-6-(1,4-dioxepan-5-yl)-2,5-dihydro-4H-pyrazolo[3,4-d]pyrimidin-4-one], the IC50 came to 0.011 µM.

`CCOCCc1nc2nn(-c3c(C)cc(Br)cc3C)cc2c(=O)[nH]1` [Example 98]: the IC50 is 0.098 µM.

In the case of `Cc1cc(Br)cc(C)c1-n1cc2c(=O)[nH]c(C(O)C(F)F)nc2n1` (racemic) [Example 139], the IC50 amounted to 0.036 µM.

Take `Cc1cc(Br)cc(C)c1-n1cc2c(=O)[nH]c(COC(F)F)nc2n1` [Example 132]: the IC50 was 0.024 µM.

Consider `Cc1cc(Br)cc(C)c1-n1cc2c(=O)[nH]c(C3COC3)nc2n1` [Example 77], for which the IC50 amounted to 0.014 µM.

With `Cc1cc(C2CC2)ccc1-n1cc2c(=O)[nH]c(C3CC3)nc2n1` [Example 24], the IC50 was 0.047 µM.

Regarding `Cc1cc(Br)cc(C)c1-n1cc2c(=O)[nH]c(COC3CCCOC3)nc2n1` (racemic) [Example 56], the IC50 amounted to 0.35 µM.

As to `Cc1cc(C2CC2)cc(C)c1-n1cc2c(=O)[nH]c(C3CCOCC3)nc2n1` [Example 42], the IC50 came out at 0.004 µM.

As for `CCC(O)c1nc2nn(-c3c(C)cc(C4CC4)cc3C)cc2c(=O)[nH]1` (racemic) [Example 134], the IC50 amounted to 0.024 µM.

On to `Cc1cc(C2CC2)cc(C)c1-n1cc2c(=O)[nH]c(C3CC3)nc2n1` [Example 21], for which the IC50 was found to be 0.012 µM.

On to `Cc1cc(Br)cc(C)c1-n1cc2c(=O)[nH]c([C@@H]3CCOCCO3)nc2n1` [Example 186], for which the half-maximal inhibitory concentration (IC50) turned out to be 0.087 µM.

As for `Cc1cc(C2CC2)cc(C)c1-n1cc2c(=O)[nH]c(C3CC3CO)nc2n1` (racemic) [Example 124], the IC50 was found to be 0.008 µM.

Turning to `Cc1cc(C2CC2(F)F)cc(C)c1-n1cc2c(=O)[nH]c(C3CC3(F)F)nc2n1` (centres unmarked) [Example 103], the IC50 was found to be 0.064 µM.

As to `COc1cc(C2CC2)cc(C)c1-n1cc2c(=O)[nH]c(C3(F)CCOCC3)nc2n1` [Example 111], the IC50 stood at 0.015 µM.

On to `Cc1cc(Br)cc(C)c1-n1cc2c(=O)[nH]c(CC3CC3)nc2n1` [Example 161], for which the IC50 amounted to 0.01 µM.

As to `Cc1cc(OC(F)F)cc(C)c1-n1cc2c(=O)[nH]c(C3CC3)nc2n1` [Example 54], the IC50 worked out at 0.033 µM.

For `COCCc1nc2nn(-c3ccc(C)cc3C)cc2c(=O)[nH]1` [Example 9], the IC50 is 1.1 µM.

For the compound `Cc1cc(Br)cc(C)c1-n1cc2c(=O)[nH]c(C3(F)CCC3)nc2n1` [Example 68], the IC50 came out at 0.076 µM.

For the compound `Cc1cc(C2CC2)cc(C)c1-n1cc2c(=O)[nH]c(C3CCO3)nc2n1` (racemic) [Example 36], the half-inhibitory concentration (IC50) was found to be 0.15 µM.

As for `Cc1cc(C(C)(F)F)cc(C)c1-n1cc2c(=O)[nH]c(CCO)nc2n1` [Example 208], the IC50 is 0.066 µM.

With `COCc1c2c(=O)[nH]c(C3CC3)nc2nn1-c1c(C)cc(C2CC2)cc1C` [Example 88, 6-cyclopropyl-2-(4-cyclopropyl-2,6-dimethylphenyl)-3-(methoxymethyl)-2,5-dihydro-4H-pyrazolo[3,4-d]pyrimidin-4-one], the IC50 worked out at 0.018 µM.

Still in this test, the particulars now being: test compound at 24 µM; IL-1β production in THP1-Null cells.
Take `CCOc1nc(C)nc2nn(-c3ccc(C)cc3C)cc12` [Example 11]: testing at 24 µM gave an inhibition of 43%.

The test is the same for the next values; noted with them: test compound at 30 µM; IL-1β production in THP1-Null cells.
In turn, `Cc1ccc(-n2cc3c(=O)[nH]c(C(F)(F)F)nc3n2)c(C)c1` [Example 7] yielded an inhibition at 30 µM of 44%.
